Test system: HIV-1 NL4-3 viral clone expressing Renilla luciferase
Test: microbe, parasite or virus in culture
Assay type: cell-based
Conditions: Human immunodeficiency virus 1, NL43, MT2, 96 h
Procedure, shortened: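 MT-2 cells (2×10^4/well) were infected at MOI 0.027 with Renilla-luciferase HIV-1 NL4-3 alongside 3-fold compound dilutions for 96 h. Spread was read by EnduRen luminescence and supernatant infectivity on TZM-bl (48 h, MUG fluorescence). Mock-infected cytotoxicity used AlamarBlue. % inhibition versus solvent was fitted by 4-parameter logistic (0–100% constrained) for EC50/CC50.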

Structure (SMILES)	EC50
COc1cc2c(cc1OCc1ccccc1)CCNC2/C=C/c1cccc(C(=O)O)c1 (centres unmarked) [ER, 3-[(E)-2-(6-benzyloxy-7-methoxy-1,2,3,4-tetrahydroisoquinolin-1-yl)vinyl]benzoic acid]	10000 nM
COc1cc2c(cc1OCc1ccccc1)CCNC2/C=C/c1ccccc1C(=O)O (centres unmarked) [ES, 2-[(E)-2-(6-benzyloxy-7-methoxy-1,2,3,4-tetrahydroisoquinolin-1-yl)vinyl]benzoic acid]	8620 nM
CCOC(=O)c1ccccc1/C=C/C1NCCc2cc(OCc3ccccc3)c(OC)cc21 (centres unmarked) [ET, Ethyl 2-[(E)-2-(6-benzyloxy-7-methoxy-1,2,3,4-tetrahydroisoquinolin-1-yl)vinyl]benzoate]	2480 nM
COc1ccc(CCC2NCCc3cc(OC)c(OC)cc32)cc1OC (centres unmarked) [Example A, 1-[2-(3,4-Dimethoxyphenyl)ethyl]-6,7-dimethoxy-1,2,3,4-tetrahydroisoquinoline]	10000 nM
CCc1cc(OC)c(OCc2ccccc2)cc1/C=C/C1NCCc2cc(OCc3ccccc3)c(OC)cc21 (centres unmarked) [Example AA, 6-benzyloxy-1-[(E)-2-(5-benzyloxy-2-ethyl-4-methoxy-phenyl)vinyl]-7-methoxy-1,2,3,4-tetrahydroisoquinoline]	148 nM
COc1ccc(/C=C/C2NCCc3cc(OCc4ccccc4)c(OC)cc32)cc1OCc1ccccc1 (centres unmarked) [Example AB, 6-benzyloxy-1-[(E)-2-(3-benzyloxy-4-methoxy-phenyl)vinyl]-7-methoxy-1,2,3,4-tetrahydroisoquinoline]	146 nM
COc1cc(Cl)c(/C=C/C2NCCc3cc(OCc4ccccc4)c(OC)cc32)cc1OCc1ccccc1 (centres unmarked) [Example AC, 6-benzyloxy-1-[(E)-2-(5-benzyloxy-2-chloro-4-methoxy-phenyl)vinyl]-7-methoxy-1,2,3,4-tetrahydroisoquinoline]	87.2 nM
COc1cc2c(cc1OCc1ccccc1)CCNC2/C=C/c1cc(OCc2ccccc2)ccc1C (centres unmarked) [Example AD, 6-benzyloxy-1-[(E)-2-(5-benzyloxy-2-methyl-phenyl)vinyl]-7-methoxy-1,2,3,4-tetrahydroisoquinoline]	84 nM
COc1cc(C)c(/C=C/C2=NCCc3cc(OCc4ccccc4)c(OC)cc32)cc1OCc1ccccc1 [Example AE, 6-benzyloxy-1-[(E)-2-(5-benzyloxy-4-methoxy-2-methyl-phenyl)vinyl]-7-methoxy-3,4-dihydroisoquinoline]	440 nM
COc1ccc(/C=C/C2NCCc3cc(OCc4ccccc4)c(OC)cc32)c(C)c1 (centres unmarked) [Example AG, 6-benzyloxy-7-methoxy-1-[(E)-2-(4-methoxy-2-methyl-phenyl)vinyl]-1,2,3,4-tetrahydroisoquinoline]	77.1 nM
COc1cc(C)c(/C=C/C2NCCc3cc(OCc4ccccc4)c(OC)cc32)cc1OC (centres unmarked) [Example AH, 6-benzyloxy-1-[(E)-2-(4,5-dimethoxy-2-methyl-phenyl)vinyl]-7-methoxy-1,2,3,4-tetrahydroisoquinoline]	13.3 nM
COCCCCOc1cc(OC)ccc1/C=C/C1NCCc2cc(OCc3ccccc3)c(OC)cc21 (centres unmarked) [Example AI, (E)-6-(benzyloxy)-7-methoxy-1-(4-methoxy-2-(4-methoxybutoxy)styryl)-1,2,3,4-tetrahydroisoquinoline]	1500 nM
COc1cc2c(cc1OCc1ccccc1)CCNC2/C=C/c1ccc(OC(F)(F)F)cc1C (centres unmarked) [Example AJ, (E)-6-(benzyloxy)-7-methoxy-1-(2-methyl-4-(trifluoromethoxy)styryl)-1,2,3,4-tetrahydroisoquinoline]	2740 nM
COc1cc2c(cc1OCc1ccccc1)CCNC2/C=C/c1ccnn1C (centres unmarked) [Example AK, 6-benzyloxy-7-methoxy-1-[(E)-2-(2-methylpyrazol-3-yl)vinyl]-1,2,3,4-tetrahydroisoquinoline]	8870 nM
CCn1cc(/C=C/C2NCCc3cc(OCc4ccccc4)c(OC)cc32)cn1 (centres unmarked) [Example AL, 6-Benzyloxy-1-[(E)-2-(1-ethylpyrazol-4-yl)vinyl]-7-methoxy-1,2,3,4-tetrahydroisoquinoline]	2950 nM
COc1cc2c(cc1OCc1ccccc1)CCNC2/C=C/c1cc(OC)c(OC)c(OC)c1 (centres unmarked) [Example AM, 6-Benzyloxy-7-methoxy-1-[(E)-2-(3,4,5-trimethoxyphenyl)vinyl]-1,2,3,4-tetrahydroisoquinoline]	220 nM

Structure (SMILES)	EC50
COc1cc2c(cc1OCc1ccccc1)CCNC2/C=C/c1ccc(OC)c2occc12 (centres unmarked) [Example AN, 6-Benzyloxy-7-methoxy-1-[(E)-2-(7-methoxybenzofuran-4-yl)vinyl]-1,2,3,4-tetrahydroisoquinoline]	140 nM
COc1cc2c(cc1OCc1ccccc1)CCNC2/C=C/c1ccc(OC)c2ccoc12 (centres unmarked) [Example AO, 6-Benzyloxy-7-methoxy-1-[(E)-2-(4-methoxybenzofuran-7-yl)vinyl]-1,2,3,4-tetrahydroisoquinoline]	1130 nM
COc1ccc(/C=C/C2c3cc(OC)c(OCc4ccccc4)cc3CCN2C(=O)c2cnccn2)cc1OCc1ccccc1 (centres unmarked) [Example B, [6-Benzyloxy-1-[(E)-2-(3-benzyloxy-4-methoxy-phenyl)vinyl]-7-methoxy-3,4-dihydro-1H-isoquinolin-2-yl]-pyrazin-2-yl-methanone]	10000 nM
COc1cc2c(cc1OC)C(/C=C/c1cc(OCc3ccccc3)c(OC)cc1C)NCC2 (centres unmarked) [Example C, 1-[(E)-2-(5-Benzyloxy-4-methoxy-2-methyl-phenyl)vinyl]-6,7-dimethoxy-1,2,3,4-tetrahydroisoquinoline]	9760 nM
CCCCN1CCc2cc(OC)c(OCc3ccccc3)cc2C1/C=C/c1ccc(OCc2ccccc2)c(OC)c1 (centres unmarked) [Example D, 7-Benzyloxy-1-[(E)-2-(4-benzyloxy-3-methoxy-phenyl)vinyl]-2-butyl-6-methoxy-3,4-dihydro-1H-isoquinoline]	8920 nM
COc1cc(C)c(/C=C/C2c3cc(OC)c(OCc4ccccc4)cc3CCN2C)cc1OCc1ccccc1 (centres unmarked) [Example E, 6-Benzyloxy-1-[(E)-2-(5-benzyloxy-4-methoxy-2-methyl-phenyl)vinyl]-7-methoxy-2-methyl-3,4-dihydro-1H-isoquinoline]	8470 nM
CCCCN1CCc2cc(OCc3ccccc3)c(OC)cc2C1/C=C/c1ccc(OC)c(OCc2ccccc2)c1 (centres unmarked) [Example G, 6-Benzyloxy-1-[(E)-2-(3-benzyloxy-4-methoxy-phenyl)vinyl]-2-butyl-7-methoxy-3,4-dihydro-1H-isoquinoline]	5000 nM
COC(=O)N1CCc2cc(OCc3ccccc3)c(OC)cc2C1/C=C/c1ccc(OC)c(OCc2ccccc2)c1 (centres unmarked) [Example L, Methyl 6-benzyloxy-1-[(E)-2-(3-benzyloxy-4-methoxy-phenyl)vinyl]-7-methoxy-3,4-dihydro-1H-isoquinoline-2-carboxylate]	2810 nM
COc1cc(C)c(/C=C/C2c3cc(OC)c(OCc4ccccc4)cc3CCN2C(=O)NC(C)(C)C)cc1OCc1ccccc1 (centres unmarked) [Example O, 6-benzyloxy-1-[(E)-2-(5-benzyloxy-4-methoxy-2-methyl-phenyl)vinyl]-N-tert-butyl-7-methoxy-3,4-dihydro-1H-isoquinoline-2-carboxamide]	2010 nM
COc1cc(C)c(CCC2NCCc3cc(OCc4ccccc4)c(OC)cc32)cc1OCc1ccccc1 (centres unmarked) [Example Q, 6-benzyloxy-1-[2-(5-benzyloxy-4-methoxy-2-methyl-phenyl)ethyl]-7-methoxy-1,2,3,4-tetrahydroisoquinoline]	1360 nM
COc1cc(/C=C/C2NCCc3cc(OC)c(OCc4ccccc4)cc32)ccc1OCc1ccccc1 (centres unmarked) [Example S, 7-benzyloxy-1-[(E)-2-(4-benzyloxy-3-methoxy-phenyl)vinyl]-6-methoxy-1,2,3,4-tetrahydroisoquinoline]	992 nM
COc1cc(C)c(/C=C/C2c3cc(OC)c(OCc4ccccc4)cc3CCN2C(=O)c2ccncc2)cc1OCc1ccccc1 (centres unmarked) [Example U, [6-benzyloxy-1-[(E)-2-(5-benzyloxy-4-methoxy-2-methyl-phenyl)vinyl]-7-methoxy-3,4-dihydro-1H-isoquinolin-2-yl]-(4-pyridyl)methanone]	870 nM
COc1ccc(/C=C/C2c3cc(OC)c(OCc4ccccc4)cc3CCN2C)cc1OCc1ccccc1 (centres unmarked) [Example V, 6-benzyloxy-1-[(E)-2-(3-benzyloxy-4-methoxy-phenyl)vinyl]-7-methoxy-2-methyl-3,4-dihydro-1H-isoquinoline]	780 nM
COc1cc2c(cc1OCc1ccccc1)CCNC2/C=C/c1ccccc1C (centres unmarked) [Example W, 6-benzyloxy-7-methoxy-1-[(E)-2-(o-tolyl)vinyl]-1,2,3,4-tetrahydroisoquinoline]	690 nM
COc1cc2c(cc1OCc1ccccc1)CCNC2/C=C/c1ccc(F)cc1C (centres unmarked) [Example X, 6-benzyloxy-1-[(E)-2-(4-fluoro-2-methyl-phenyl)vinyl]-7-methoxy-1,2,3,4-tetrahydroisoquinoline]	620 nM
COc1cc(C)c(/C=C/C2c3cc(OC)c(OCc4ccccc4)cc3CCN2C(=O)OC(C)(C)C)cc1OCc1ccccc1 (centres unmarked) [Example Y, tert-butyl 6-benzyloxy-1-[(E)-2-(5-benzyloxy-4-methoxy-2-methyl-phenyl)vinyl]-7-methoxy-3,4-dihydro-1H-isoquinoline-2-carboxylate]	390 nM

— patent US10195189B2, “2-phenethenyltetrahydro isoquinolines useful as anti-HIV compounds” (priority 2014, dated 2019)
